Laboratory results as given in patent US20180228826A1, “FIXED-DOSE COMBINATIONS OF ANTIVIRAL COMPOUNDS” (priority 2015, published 2018).
Read-outs that look alike come from different tables or passages of the source.

Tests used:
[1] = log D of Compound III; assay type: physicochemical; settings: pH=7
Method: (§1) Even in its amorphous state, the apparent solubility of neat amorphous Compound […] in simulated fasted-state intestinal fluid is 50 μg/mL after two hours of equilibration. In order to enable absorption of Compound III, solid dispersion formulations of Compound III were formulated at a drug loading less than or equal to 40% in combination with absorption-enhancing polymers and surfactants as described in U.S. Provisional Patent Application No. 61/936,019, filed Feb. 5, 2014; PCT International Patent Application Nos. PCT/US2015/014195 and PCT/US2015/014201, filed Feb. 3, 2015.

[2] = human clinical trial, pharmacokinetics of Tablet Formulation 6 and Tablet Formulation 7, fasted and fed; settings: in vivo, GM; for AUC(0-t): read-out: AUC0-24 hr
[3] = solubility in simulated fasted-state intestinal fluid; assay type: physicochemical; settings: fassif
Method: as §1

[4] = oral, administered as Tablet Formulation 6, single dose of two tablets, Fasted
[5] = oral, administered as Tablet Formulation 6, single dose of two tablets, Fed (High-Fat Meal)
[6] = oral, administered as Tablet Formulation 7, single dose of two tablets, Fasted
[7] = oral, administered as Tablet Formulation 7, single dose of two tablets, Fed (High-Fat Meal)
[8] = administered as Tablet Formulation 6, single dose of two tablets, Fasted
[9] = administered as Tablet Formulation 6, single dose of two tablets, Fed (High-Fat Meal)
[10] = administered as Tablet Formulation 7, single dose of two tablets, Fasted
[11] = administered as Tablet Formulation 7, single dose of two tablets, Fed (High-Fat Meal)

| SMILES | AUC(0-inf) [2, 4] [µM·h] | Cmax [2, 4] [nM] | AUC(0-t) [2, 4] [µM·h] | AUC(0-inf) [2, 5] [µM·h] | Cmax [2, 5] [nM] | AUC(0-t) [2, 5] [µM·h] | AUC(0-inf) [2, 6] [µM·h] | Cmax [2, 6] [nM] | AUC(0-t) [2, 6] [µM·h] | AUC(0-inf) [2, 7] [µM·h] | Cmax [2, 7] [nM] | AUC(0-t) [2, 7] [µM·h] | further results |
| --- | --- | --- | --- | --- | --- | --- | --- | --- | --- | --- | --- | --- | --- |
| C=C[C@@H]1C[C@]1(NC(=O)[C@@H]1C[C@@H]2CN1C(=O)[C@H](C(C)(C)C)NC(=O)O[C@@H]1C[C@H]1CCCCCc1nc3ccc(OC)cc3nc1O2)C(=O)NS(=O)(=O)C1CC1 [Compound III, (1aR,5S,8S,10R,22aR)—N-[(1R,2S)-1-[(cyclopropylsulfonamido)carbonyl]-2-ethenylcyclopropyl]-14-methoxy-5-(2-methylpropan-2-yl)-3,6-dioxo-1,1a,3,4,5,6,9,10,18,19,20,21,22,22a-tetradecahydro-8H-7,10-methanocyclopropa[18,19][1,10,3,6]dioxadiazacyclononadecino[11,12-b]quinoxaline-8-carboxamide hydrate] | 0.508 | 25.6 | 0.218 | 0.628 | 44.3 | 0.33 | 0.598 | 31.2 | 0.285 | 0.733 | 61.2 | 0.38 | logD [1]: ~3; solubility [3]: < 7 µg/mL |
| COC(=O)N[C@H](C(=O)N1CCC[C@H]1c1ncc(-c2cc(F)c3c(c2)O[C@@H](c2cnc(C4CC4)s2)n2c-3cc3cc(-c4cnc([C@@H]5CCCN5C(=O)[C@@H](NC(=O)OC)C(C)C)[nH]4)ccc32)[nH]1)C(C)C [Compound II, dimethyl ((2S,2′S)-((2S,2′S)-2,2′-(5,5′-((S)-6-(2-cyclopropylthiazol-5-yl)-1-fluoro-6H-benzo[5,6][1,3]oxazino[3,4-a]indole-3,10-diyl)bis(1H-imidazole-5,2-diyl))bis(pyrrolidine-2,1-diyl))bis(3-methyl-1-oxobutane-2,1-diyl))dicarbamate] | 0.942 | 57 | 0.572 | 1.11 | 68.1 | 0.658 | 1.31 | 77.2 | 0.783 | 1.2 | 78.7 | 0.716 |  |
| CC(C)OC(=O)[C@@H](C)NP(=O)(OC[C@H]1O[C@@H](n2ccc(=O)[nH]c2=O)[C@](C)(Cl)[C@@H]1O)Oc1ccccc1 (stereo partly drawn) [Compound I, (2R)-isopropyl 2-(((((2R,3R,4R,5R)-4-chloro-5-(2,4-dioxo-3,4-dihydropyrimidin-1(2H)-yl)-3-hydroxy-4-methyltetrahydrofuran-2-yl)methoxy)(phenoxy)phosphoryl)amino)propanoate] |  |  |  |  |  |  |  |  |  |  |  |  | AUC(0-inf) [2, 8]: 2.73 µM·h; Cmax [2, 8]: 900 nM; AUC(0-t) [2, 8]: 2.63 µM·h; AUC(0-inf) [2, 9]: 3.91 µM·h; Cmax [2, 9]: 1420 nM; AUC(0-t) [2, 9]: 3.85 µM·h; AUC(0-inf) [2, 10]: 3.01 µM·h; Cmax [2, 10]: 897 nM; AUC(0-t) [2, 10]: 2.91 µM·h; AUC(0-inf) [2, 11]: 4.08 µM·h; Cmax [2, 11]: 1740 nM; AUC(0-t) [2, 11]: 4.36 µM·h; solubility at 2 h ([3]; thermodynamic from solid, after two hours of equilibration, read-out: apparent solubility of neat amorphous compound): 50 µg/mL |
